According to ChEMBL document CHEMBL1149638, “Synthesis of novel antitumoural analogues of dysidiolide from ent-halimic acid” (Bioorg Med Chem, 2007):

How the values were obtained:
Assay type in all cases: functional, cell-based
HeLa = assay: Antiproliferative activity against human HeLa cells after 72 hrs by XTT assay
A549 = assay: Antiproliferative activity against human A549 cells after 72 hrs by XTT assay; settings: A549, 72 h
HT-29 = assay: Antiproliferative activity against human HT29 cells after 72 hrs by XTT assay; settings: HT-29, 72 h
HL-60 = assay: Antiproliferative activity against human HL60 cells after 72 hrs by XTT assay; settings: HL-60, 72 h

Row | Compound | IC50 (HeLa) [µM] | IC50 (A549) [µM] | IC50 (HT-29) [µM] | IC50 (HL-60) [µM]
1 | C=C(C)CC[C@]1(C)C2=CCC[C@](C)(C[C@@H](OC(C)=O)C3=CC(=O)OC3O)[C@H]2CC[C@H]1C (stereo not given in full) | 6.7 | 11.1 | 4.8 | 3.3
2 | C=C(C)CCC[C@]1(C)C2=CCC[C@](C)(C[C@@H](O)C3=CC(=O)OC3O)[C@H]2CC[C@H]1C (stereo not given in full) | 2.6 | 3.8 | 2.3 | 3.2
3 | CC(C)=CCC[C@]1(C)C2=CCC[C@](C)(CC(=O)c3ccoc3)[C@H]2CC[C@H]1C | 54.5 | 91 | 82.3 | 57.8
4 | C=C(C)CCC[C@]1(C)C2=CCC[C@](C)(C[C@@H](OC(C)=O)C3=CC(=O)OC3O)[C@H]2CC[C@H]1C (stereo not given in full) | 3.5 | 3.2 | 2.9 | 3.2
5 | C=C(C)CCC[C@]1(C)C2=CCC[C@](C)(C[C@H](OC(C)=O)C3=CC(=O)OC3O)[C@H]2CC[C@H]1C (stereo not given in full) | 2.6 | 4.5 | 4.2 | 3
6 | COC/C=C(\C)CC[C@]1(C)C2=C(CC[C@H]1C)C1(C)CCC2[C@@](O)(C2=CC(=O)OC2O)C1 (stereo not given in full) | 26.5 | 28.2 | 18.7 | 18.7
7 | C=C(C)CCC[C@]1(C)C2=C(CC[C@H]1C)C1(C)CCC2[C@@](O)(C2=CC(=O)OC2O)C1 (stereo not given in full) | 3.1 | 3 | 2.9 | 0.3
8 | C=C(C)CC[C@]1(C)C2=CCC[C@](C)(C[C@@H](O)C3=CC(=O)OC3O)[C@H]2CC[C@H]1C (stereo not given in full) | 5.4 | 4.4 | 3.6 | 3.3
9 | C=C(C)CC[C@]1(C)C2=CCC[C@](C)(C[C@H](O)C3=CC(=O)OC3O)[C@H]2CC[C@H]1C (stereo not given in full) | 4.8 | 4.5 | 3.2 | 3.2

Further lines, results first:

Row | IC50 (HeLa) [µM] | IC50 (A549) [µM] | IC50 (HT-29) [µM] | IC50 (HL-60) [µM] | Compound
10 | 30.2 | 34 | 30 | 28.7 | C=C(C)CC[C@]1(C)C2=CCC[C@](C)(C[C@@H](O)c3ccoc3)[C@H]2CC[C@H]1C
11 | > 100 | > 100 | > 100 | > 100 | C=C(C)CCC[C@]1(C)C2=CCC[C@](C)(CC(=O)c3ccoc3)[C@H]2CC[C@H]1C
12 | 59.4 | 66 | 63.1 | 31.2 | C=C(C)CCC[C@]1(C)C2=CCC[C@](C)(C[C@H](O)c3ccoc3)[C@H]2CC[C@H]1C
13 | 30.2 | 34 | 30 | 28.7 | C=C(C)CC[C@]1(C)C2=CCC[C@](C)(C[C@H](O)c3ccoc3)[C@H]2CC[C@H]1C
14 | 3.8 | 3.2 | 3 | 3 | C=C(C)CCC[C@]1(C)C2=CCC[C@](C)(C[C@H](O)C3=CC(=O)OC3O)[C@H]2CC[C@H]1C (stereo not given in full)
15 | 59.4 | 66 | 63.1 | 31.2 | C=C(C)CCC[C@]1(C)C2=CCC[C@](C)(C[C@@H](O)c3ccoc3)[C@H]2CC[C@H]1C
